In ChEMBL document CHEMBL5696442, “Discovery of type II inhibitors of TGFβ-activated kinase 1 (TAK1) and mitogen-activated protein kinase kinase kinase kinase 2 (MAP4K2)” (J Med Chem, 2015):
The source made the active and inactive calls. No cut-off for these calls is given here.

How the values were obtained:
[1] = biological target: G protein-coupled receptor kinase 4 (Homo sapiens) (UniProt P32298); experiment: Inhibition of GRK4 (unknown origin) at 1 uM by Ambit Kinomescan binding assay relative to control; values are per cent of control
Sequence of G protein-coupled receptor kinase 4 (Homo sapiens) (P32298 whole entry, looked up): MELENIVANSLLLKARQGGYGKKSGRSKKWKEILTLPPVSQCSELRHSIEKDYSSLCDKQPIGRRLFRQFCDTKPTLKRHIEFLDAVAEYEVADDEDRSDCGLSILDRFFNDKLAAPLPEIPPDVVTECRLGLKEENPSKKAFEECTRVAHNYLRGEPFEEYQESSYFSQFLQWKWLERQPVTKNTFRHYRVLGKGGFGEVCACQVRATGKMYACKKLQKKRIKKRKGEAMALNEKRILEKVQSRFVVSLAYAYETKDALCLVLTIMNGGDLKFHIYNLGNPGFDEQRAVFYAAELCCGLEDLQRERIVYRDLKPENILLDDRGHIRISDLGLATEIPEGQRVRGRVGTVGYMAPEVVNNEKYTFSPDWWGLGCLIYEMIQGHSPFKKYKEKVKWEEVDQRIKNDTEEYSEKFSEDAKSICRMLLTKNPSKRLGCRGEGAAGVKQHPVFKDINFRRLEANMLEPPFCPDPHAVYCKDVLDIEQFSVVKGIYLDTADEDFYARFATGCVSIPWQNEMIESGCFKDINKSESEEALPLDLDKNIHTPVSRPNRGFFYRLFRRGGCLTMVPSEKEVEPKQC

[2] = biological target: Dual specificity protein kinase CLK1 (Homo sapiens) (UniProt P49759); experiment: Inhibition of CLK1 (unknown origin) at 1 uM by Ambit Kinomescan binding assay relative to control; values are per cent of control
Sequence of Dual specificity protein kinase CLK1 (Homo sapiens) (P49759 whole entry, looked up): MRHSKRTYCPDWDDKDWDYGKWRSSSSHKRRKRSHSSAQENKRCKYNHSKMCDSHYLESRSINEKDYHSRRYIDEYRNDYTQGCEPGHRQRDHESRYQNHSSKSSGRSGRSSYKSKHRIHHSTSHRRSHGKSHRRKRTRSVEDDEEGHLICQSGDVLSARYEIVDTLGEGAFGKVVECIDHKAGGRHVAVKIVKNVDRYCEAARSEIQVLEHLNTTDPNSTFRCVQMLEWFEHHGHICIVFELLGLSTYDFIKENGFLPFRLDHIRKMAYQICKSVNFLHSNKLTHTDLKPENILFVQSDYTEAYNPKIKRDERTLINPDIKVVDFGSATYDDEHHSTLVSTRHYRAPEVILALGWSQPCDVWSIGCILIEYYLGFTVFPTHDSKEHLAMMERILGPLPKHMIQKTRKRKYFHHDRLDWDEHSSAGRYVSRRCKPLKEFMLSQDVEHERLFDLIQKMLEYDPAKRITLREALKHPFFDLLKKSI

[3] = tested on: Tyrosine-protein kinase ABL1 (Homo sapiens), P00519 [F317I]; experiment: Inhibition of nonphosphorylated ABL1 F317I mutant (unknown origin) at 1 uM by Ambit Kinomescan binding assay relative to control
[4] = biological target: 5'-AMP-activated protein kinase catalytic subunit alpha-2 (Homo sapiens) (UniProt P54646); experiment: Inhibition of AMPKa2 Lys2 labeling site in human A-375 cells at 0.5 uM by KiNativ Profiling analysis relative to control; assay type: cell-based
Sequence of 5'-AMP-activated protein kinase catalytic subunit alpha-2 (Homo sapiens) (P54646 whole entry, looked up): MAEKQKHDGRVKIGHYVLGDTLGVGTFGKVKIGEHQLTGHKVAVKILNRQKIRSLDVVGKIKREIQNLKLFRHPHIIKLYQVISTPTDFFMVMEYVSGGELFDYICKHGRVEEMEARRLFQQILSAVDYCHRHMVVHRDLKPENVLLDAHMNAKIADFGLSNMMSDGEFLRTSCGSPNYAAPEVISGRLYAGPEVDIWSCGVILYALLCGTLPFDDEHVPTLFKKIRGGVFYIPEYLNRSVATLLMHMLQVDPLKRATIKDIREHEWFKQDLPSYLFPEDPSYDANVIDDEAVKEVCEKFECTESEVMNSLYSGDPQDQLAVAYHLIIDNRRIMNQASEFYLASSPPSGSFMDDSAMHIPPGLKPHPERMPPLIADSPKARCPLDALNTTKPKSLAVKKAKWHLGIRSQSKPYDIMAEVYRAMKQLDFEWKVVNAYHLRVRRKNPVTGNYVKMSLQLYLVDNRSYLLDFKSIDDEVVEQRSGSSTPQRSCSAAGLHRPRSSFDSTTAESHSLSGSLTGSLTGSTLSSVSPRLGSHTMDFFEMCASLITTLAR

[5] = biological target: Megakaryocyte-associated tyrosine-protein kinase (Homo sapiens) (UniProt P42679); experiment: Inhibition of CTK (unknown origin) at 1 uM by Ambit Kinomescan binding assay relative to control; values are per cent of control
Sequence of Megakaryocyte-associated tyrosine-protein kinase (Homo sapiens) (P42679 whole entry): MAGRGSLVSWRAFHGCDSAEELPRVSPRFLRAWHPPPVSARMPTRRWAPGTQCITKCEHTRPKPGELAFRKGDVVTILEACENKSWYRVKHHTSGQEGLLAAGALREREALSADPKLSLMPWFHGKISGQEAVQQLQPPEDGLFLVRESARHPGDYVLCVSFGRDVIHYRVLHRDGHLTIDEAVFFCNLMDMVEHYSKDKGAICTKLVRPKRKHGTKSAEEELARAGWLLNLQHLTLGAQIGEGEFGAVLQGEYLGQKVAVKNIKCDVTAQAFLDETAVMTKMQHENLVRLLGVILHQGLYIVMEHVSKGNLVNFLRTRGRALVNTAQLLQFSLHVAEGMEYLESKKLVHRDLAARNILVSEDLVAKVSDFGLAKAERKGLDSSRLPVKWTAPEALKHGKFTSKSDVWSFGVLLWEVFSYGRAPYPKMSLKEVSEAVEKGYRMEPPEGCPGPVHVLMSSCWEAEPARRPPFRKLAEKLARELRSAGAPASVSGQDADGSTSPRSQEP

[6] = biological target: T1, Phosphatidylinositol 5-phosphate 4-kinase type-2 gamma (Homo sapiens) (UniProt Q8TBX8); experiment: Inhibition of PIP5K2C C2 labeling site in human Huh-7 cells at 1 uM by KiNativ Profiling analysis relative to control; assay type: cell-based
T1 sequence (whole entry): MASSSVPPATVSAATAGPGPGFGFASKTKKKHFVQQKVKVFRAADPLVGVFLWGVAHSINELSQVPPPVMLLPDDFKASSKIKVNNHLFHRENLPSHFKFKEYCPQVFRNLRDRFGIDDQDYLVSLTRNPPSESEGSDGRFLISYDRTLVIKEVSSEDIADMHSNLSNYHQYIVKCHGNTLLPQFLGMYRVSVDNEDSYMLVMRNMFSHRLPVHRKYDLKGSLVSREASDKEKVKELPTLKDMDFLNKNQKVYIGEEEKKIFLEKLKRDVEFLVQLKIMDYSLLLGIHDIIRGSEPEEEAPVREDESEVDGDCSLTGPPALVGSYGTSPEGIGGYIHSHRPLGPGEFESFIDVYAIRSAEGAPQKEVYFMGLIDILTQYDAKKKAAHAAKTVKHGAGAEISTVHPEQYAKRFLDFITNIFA

[7] = biological target: Serine/threonine-protein kinase 25 (Homo sapiens) (UniProt O00506); experiment: Inhibition of YSK1 (unknown origin) at 10 uM by Ambit Kinomescan binding assay
Sequence of Serine/threonine-protein kinase 25 (Homo sapiens) (O00506 whole entry, looked up): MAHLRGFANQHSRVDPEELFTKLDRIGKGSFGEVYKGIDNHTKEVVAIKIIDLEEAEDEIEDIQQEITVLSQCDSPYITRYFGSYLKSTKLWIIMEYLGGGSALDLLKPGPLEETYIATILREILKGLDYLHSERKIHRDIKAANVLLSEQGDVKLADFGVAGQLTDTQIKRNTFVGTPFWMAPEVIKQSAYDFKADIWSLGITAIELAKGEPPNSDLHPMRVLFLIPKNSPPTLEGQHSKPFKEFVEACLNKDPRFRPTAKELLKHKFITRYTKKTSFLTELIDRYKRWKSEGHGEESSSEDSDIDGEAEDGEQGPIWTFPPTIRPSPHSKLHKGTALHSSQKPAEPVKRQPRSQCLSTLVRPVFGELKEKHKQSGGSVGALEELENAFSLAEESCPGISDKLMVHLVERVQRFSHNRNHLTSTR

[8] = biological target: Hepatocyte growth factor receptor (Homo sapiens) (UniProt P08581); experiment: Inhibition of MET ACT labeling site in human A-375 cells at 0.5 uM by KiNativ Profiling analysis relative to control; assay type: cell-based
Sequence of Hepatocyte growth factor receptor (Homo sapiens) (P08581 whole entry): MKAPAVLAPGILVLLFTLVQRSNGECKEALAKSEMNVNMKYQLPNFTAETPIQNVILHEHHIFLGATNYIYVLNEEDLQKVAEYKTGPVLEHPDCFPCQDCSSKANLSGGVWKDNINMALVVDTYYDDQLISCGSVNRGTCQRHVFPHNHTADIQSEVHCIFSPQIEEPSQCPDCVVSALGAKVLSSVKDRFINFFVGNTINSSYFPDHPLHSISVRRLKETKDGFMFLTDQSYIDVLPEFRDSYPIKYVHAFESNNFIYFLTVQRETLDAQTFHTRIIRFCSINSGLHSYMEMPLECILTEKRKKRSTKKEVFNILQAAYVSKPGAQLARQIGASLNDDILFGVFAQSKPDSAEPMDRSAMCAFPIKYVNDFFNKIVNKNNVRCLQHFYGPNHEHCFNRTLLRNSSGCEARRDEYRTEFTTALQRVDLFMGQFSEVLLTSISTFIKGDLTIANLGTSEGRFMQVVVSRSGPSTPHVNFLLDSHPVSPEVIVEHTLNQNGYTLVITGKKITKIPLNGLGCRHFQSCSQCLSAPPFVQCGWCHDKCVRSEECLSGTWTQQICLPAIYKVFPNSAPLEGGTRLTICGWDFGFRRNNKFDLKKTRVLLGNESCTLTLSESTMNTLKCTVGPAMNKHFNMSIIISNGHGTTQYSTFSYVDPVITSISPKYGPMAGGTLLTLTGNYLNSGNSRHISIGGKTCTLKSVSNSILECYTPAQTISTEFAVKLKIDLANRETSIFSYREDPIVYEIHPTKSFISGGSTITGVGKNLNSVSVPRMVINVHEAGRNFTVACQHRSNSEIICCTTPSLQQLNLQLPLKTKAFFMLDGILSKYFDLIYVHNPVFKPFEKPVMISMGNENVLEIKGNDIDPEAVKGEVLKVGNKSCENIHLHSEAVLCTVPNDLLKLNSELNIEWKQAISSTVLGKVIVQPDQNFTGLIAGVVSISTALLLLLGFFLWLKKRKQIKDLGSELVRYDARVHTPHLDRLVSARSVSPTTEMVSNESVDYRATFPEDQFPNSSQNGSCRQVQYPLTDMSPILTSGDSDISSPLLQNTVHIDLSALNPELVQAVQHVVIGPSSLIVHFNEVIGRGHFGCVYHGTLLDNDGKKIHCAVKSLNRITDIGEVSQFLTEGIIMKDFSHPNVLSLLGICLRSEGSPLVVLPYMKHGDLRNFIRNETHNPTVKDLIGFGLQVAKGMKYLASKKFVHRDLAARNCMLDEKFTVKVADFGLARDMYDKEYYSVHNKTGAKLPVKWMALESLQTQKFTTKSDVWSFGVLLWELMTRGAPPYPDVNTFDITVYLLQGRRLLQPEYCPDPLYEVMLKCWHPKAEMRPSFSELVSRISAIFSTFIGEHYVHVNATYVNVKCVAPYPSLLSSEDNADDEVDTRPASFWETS

[9] = biological target: T2, Serine/threonine-protein kinase Chk1 (Homo sapiens) (UniProt O14757); experiment: Inhibition of CHK1 in human Huh-7 cells at 1 uM by KiNativ Profiling analysis relative to control; assay type: cell-based
T2 sequence (whole entry): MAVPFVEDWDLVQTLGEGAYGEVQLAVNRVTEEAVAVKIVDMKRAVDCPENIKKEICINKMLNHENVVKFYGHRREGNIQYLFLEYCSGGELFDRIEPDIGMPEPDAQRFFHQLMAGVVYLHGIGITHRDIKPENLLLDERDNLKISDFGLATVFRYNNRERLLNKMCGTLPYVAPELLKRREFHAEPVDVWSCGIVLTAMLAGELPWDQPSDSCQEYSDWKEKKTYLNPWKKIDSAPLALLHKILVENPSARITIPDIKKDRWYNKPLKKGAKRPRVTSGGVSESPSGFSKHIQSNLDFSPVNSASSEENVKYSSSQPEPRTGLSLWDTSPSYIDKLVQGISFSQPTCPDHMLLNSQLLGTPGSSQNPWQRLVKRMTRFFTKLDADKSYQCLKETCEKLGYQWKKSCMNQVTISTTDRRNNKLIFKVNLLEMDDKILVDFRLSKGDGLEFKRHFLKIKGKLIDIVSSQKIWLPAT

[10] = biological target: Tyrosine-protein kinase Yes (Homo sapiens) (UniProt P07947); experiment: Inhibition of YES ACT labeling site in human Huh-7 cells at 1 uM by KiNativ Profiling analysis relative to control; assay type: cell-based
Sequence of Tyrosine-protein kinase Yes (Homo sapiens) (P07947 2-543 limits assumed): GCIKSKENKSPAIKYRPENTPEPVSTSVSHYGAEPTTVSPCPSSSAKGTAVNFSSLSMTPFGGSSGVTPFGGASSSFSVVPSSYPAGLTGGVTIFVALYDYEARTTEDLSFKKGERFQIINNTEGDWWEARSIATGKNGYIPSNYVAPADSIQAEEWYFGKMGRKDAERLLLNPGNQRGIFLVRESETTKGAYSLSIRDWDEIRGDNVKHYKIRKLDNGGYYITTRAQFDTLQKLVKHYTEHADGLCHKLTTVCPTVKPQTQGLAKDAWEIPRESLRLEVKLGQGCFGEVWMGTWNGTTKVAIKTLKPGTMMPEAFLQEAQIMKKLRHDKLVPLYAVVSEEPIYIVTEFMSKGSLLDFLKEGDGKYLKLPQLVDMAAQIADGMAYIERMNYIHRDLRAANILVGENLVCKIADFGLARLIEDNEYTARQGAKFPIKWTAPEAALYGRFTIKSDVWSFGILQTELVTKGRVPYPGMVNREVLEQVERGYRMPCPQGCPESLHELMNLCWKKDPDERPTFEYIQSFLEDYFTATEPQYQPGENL

[11] = biological target: Serine/threonine-protein kinase 24 (Homo sapiens) (UniProt Q9Y6E0); experiment: Inhibition of MST3 K2 labeling site harbouring DIKAANVLLSEHGEVK in human Huh-7 cells at 1 uM by KiNativ Profiling analysis relative to control; assay type: cell-based
Sequence of Serine/threonine-protein kinase 24 (Homo sapiens) (Q9Y6E0 whole entry, looked up): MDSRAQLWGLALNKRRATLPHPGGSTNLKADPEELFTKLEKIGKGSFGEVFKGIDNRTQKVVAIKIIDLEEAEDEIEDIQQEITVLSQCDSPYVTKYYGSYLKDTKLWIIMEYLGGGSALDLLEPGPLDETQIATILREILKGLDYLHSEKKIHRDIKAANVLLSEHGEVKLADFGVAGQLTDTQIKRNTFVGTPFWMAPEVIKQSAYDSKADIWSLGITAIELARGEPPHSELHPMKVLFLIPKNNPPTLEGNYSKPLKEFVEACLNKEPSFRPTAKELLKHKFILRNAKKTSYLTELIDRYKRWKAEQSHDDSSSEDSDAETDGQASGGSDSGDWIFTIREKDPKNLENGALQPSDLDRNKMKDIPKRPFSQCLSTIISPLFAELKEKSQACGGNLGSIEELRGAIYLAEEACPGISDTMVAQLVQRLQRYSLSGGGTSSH

[12] = biological target: T3, Mitogen-activated protein kinase 12 (Homo sapiens) (UniProt P53778); experiment: Inhibition of p38gamma Lys2 labeling site in human Huh-7 cells at 1 uM by KiNativ Profiling analysis relative to control; assay type: cell-based
T3 sequence (whole entry): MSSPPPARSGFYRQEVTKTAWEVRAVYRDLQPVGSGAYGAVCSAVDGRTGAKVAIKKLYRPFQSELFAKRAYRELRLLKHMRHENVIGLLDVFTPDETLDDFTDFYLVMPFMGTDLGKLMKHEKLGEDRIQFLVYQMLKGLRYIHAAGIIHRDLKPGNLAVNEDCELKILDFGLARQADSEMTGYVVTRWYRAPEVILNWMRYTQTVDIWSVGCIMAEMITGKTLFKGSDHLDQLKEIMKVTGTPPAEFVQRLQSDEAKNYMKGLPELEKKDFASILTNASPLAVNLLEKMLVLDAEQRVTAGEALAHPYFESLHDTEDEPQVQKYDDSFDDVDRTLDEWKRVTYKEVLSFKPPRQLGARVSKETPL

CCN1CCN(Cc2ccc(NC(=O)c3ccc(C)c(/C=C/c4cnc5[nH]ccc5c4OC)c3)cc2C(F)(F)F)CC1
residual activity [1]: 40%
residual activity [2]: 59%
inhibition [3]: 19%
inhibition [4]: -8.2%
residual activity [5]: 60%

CCN1CCN(Cc2ccc(NC(=O)c3ccc(C)c(Oc4ccnc5[nH]ccc45)c3)cc2C(F)(F)F)CC1
inhibition [6]: 1.3%
inhibition [7]: inactive
inhibition [8]: 14.4%
inhibition [9]: -0.4%
inhibition [10]: -0.3%
inhibition [11]: -7.8%

CNc1cc(Oc2cc(C(=O)Nc3cc(N4CCN(C)CC4)cc(C(F)(F)F)c3)ccc2C)ncn1
inhibition [12]: 13%
